Source: ChEMBL document CHEMBL4507310, “Data for DCP probe A-1211212” (2021)

Key:
[1] = target: Serine/threonine-protein kinase N2 (Homo sapiens) (UniProt Q16513); settings: Compound concentration 1000.0 nM
[2] = target: Activin receptor type-1B (Homo sapiens) (UniProt P36896); settings: Compound concentration 1000.0 nM
[3] = target: Serine/threonine-protein kinase Nek6 (Homo sapiens) (UniProt Q9HC98); settings: Compound concentration 1000.0 nM
[4] = species: Rattus norvegicus; experiment: SKCa channel Eurofins-Cerep binding assay; parameters: ligand concentration 0.007 nM; settings: filed as antagonist, Compound concentration 10.0 uM
[5] = target: Histamine H1 receptor (Homo sapiens) (UniProt P35367); experiment: H1 (h) Eurofins-Cerep binding assay; parameters: ligand concentration 1 nM; settings: filed as antagonist, Compound concentration 10.0 uM
[6] = target: Leukocyte tyrosine kinase receptor (Homo sapiens) (UniProt P29376); settings: Compound concentration 1000.0 nM
[7] = target: Eukaryotic translation initiation factor 2-alpha kinase 1 (Homo sapiens) (UniProt Q9BQI3); settings: Compound concentration 1000.0 nM
[8] = target: Serine/threonine-protein kinase/endoribonuclease IRE1 (Homo sapiens) (UniProt O75460); settings: Compound concentration 1000.0 nM
[9] = target: Ribosomal protein S6 kinase alpha-4 (Homo sapiens) (UniProt O75676); settings: Compound concentration 1000.0 nM
[10] = target: Serine/threonine-protein kinase SBK1 (Homo sapiens) (UniProt Q52WX2); settings: Compound concentration 1000.0 nM
Sequence of Serine/threonine-protein kinase SBK1 (Homo sapiens) (Q52WX2 whole entry): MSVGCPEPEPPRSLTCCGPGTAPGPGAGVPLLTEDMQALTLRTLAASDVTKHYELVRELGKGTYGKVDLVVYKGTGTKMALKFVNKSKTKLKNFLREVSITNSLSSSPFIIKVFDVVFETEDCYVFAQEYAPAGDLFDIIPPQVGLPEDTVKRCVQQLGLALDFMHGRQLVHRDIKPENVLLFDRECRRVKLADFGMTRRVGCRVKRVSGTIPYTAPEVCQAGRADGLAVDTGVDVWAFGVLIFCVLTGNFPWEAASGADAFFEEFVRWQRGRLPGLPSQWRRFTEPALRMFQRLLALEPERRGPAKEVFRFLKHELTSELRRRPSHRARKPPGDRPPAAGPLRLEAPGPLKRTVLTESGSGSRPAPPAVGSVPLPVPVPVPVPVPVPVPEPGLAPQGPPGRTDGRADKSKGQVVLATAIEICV

[11] = target: Phosphatidylinositol 5-phosphate 4-kinase type-2 beta (Homo sapiens) (UniProt P78356); settings: Compound concentration 1000.0 nM
[12] = target: 5-hydroxytryptamine receptor 1E (Homo sapiens) (UniProt P28566); settings: Compound concentration 10.0 uM
Sequence of 5-hydroxytryptamine receptor 1E (Homo sapiens) (P28566 whole entry): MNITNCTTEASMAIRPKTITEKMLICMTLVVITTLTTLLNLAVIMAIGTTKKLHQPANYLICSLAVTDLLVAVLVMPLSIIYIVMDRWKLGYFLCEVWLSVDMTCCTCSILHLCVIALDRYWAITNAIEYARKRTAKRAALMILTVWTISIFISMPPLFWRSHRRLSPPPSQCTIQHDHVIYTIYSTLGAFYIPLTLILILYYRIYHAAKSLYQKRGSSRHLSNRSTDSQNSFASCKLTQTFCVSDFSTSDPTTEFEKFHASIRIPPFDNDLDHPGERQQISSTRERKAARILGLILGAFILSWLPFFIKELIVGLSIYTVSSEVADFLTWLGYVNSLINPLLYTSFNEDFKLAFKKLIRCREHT

[13] = target: Dual specificity protein kinase CLK4 (Homo sapiens) (UniProt Q9HAZ1); settings: Compound concentration 1000.0 nM
Sequence of Dual specificity protein kinase CLK4 (Homo sapiens) (Q9HAZ1 whole entry, looked up): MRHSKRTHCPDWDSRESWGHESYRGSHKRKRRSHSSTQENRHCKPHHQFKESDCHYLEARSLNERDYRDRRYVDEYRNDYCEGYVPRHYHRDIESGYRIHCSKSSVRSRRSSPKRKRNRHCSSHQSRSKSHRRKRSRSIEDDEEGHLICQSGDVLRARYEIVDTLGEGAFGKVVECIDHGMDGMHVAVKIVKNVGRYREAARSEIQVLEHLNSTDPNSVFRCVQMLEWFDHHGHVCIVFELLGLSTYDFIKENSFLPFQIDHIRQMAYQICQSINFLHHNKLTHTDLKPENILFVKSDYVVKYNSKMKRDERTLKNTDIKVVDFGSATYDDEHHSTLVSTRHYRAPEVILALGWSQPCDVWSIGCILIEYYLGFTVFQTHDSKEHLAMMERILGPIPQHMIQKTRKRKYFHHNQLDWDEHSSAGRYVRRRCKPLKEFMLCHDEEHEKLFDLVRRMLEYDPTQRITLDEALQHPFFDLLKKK

[14] = target: Tyrosine-protein kinase HCK (Homo sapiens) (UniProt P08631); settings: Compound concentration 1000.0 nM
[15] = target: Serine/threonine-protein kinase D2 (Homo sapiens) (UniProt Q9BZL6); settings: Compound concentration 1000.0 nM
Sequence of Serine/threonine-protein kinase D2 (Homo sapiens) (Q9BZL6 whole entry): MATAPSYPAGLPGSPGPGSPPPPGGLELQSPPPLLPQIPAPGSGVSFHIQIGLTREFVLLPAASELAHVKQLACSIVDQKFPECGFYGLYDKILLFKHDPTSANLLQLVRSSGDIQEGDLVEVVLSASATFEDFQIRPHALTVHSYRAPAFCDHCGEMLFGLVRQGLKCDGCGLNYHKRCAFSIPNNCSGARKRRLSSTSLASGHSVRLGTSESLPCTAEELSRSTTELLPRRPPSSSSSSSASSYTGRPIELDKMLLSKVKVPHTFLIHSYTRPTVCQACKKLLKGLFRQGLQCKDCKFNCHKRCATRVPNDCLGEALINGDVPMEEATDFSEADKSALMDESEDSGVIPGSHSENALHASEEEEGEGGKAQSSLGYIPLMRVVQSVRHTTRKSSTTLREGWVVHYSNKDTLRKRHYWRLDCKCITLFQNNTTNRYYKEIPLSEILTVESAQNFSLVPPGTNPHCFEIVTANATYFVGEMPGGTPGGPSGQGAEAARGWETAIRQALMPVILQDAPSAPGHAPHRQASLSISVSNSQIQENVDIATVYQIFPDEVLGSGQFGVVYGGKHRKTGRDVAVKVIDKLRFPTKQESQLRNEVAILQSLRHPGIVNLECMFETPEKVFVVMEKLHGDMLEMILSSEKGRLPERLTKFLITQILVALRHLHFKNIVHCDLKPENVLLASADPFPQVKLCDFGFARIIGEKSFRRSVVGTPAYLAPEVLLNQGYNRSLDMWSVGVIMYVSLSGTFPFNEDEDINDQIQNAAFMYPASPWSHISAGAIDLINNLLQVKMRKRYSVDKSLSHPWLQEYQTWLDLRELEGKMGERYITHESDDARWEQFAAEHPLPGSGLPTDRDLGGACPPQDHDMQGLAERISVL

[16] = test system: Mast/stem cell growth factor receptor Kit (Homo sapiens), P10721 [D816H]; settings: Compound concentration 1000.0 nM
[17] = target: Proto-oncogene tyrosine-protein kinase Src (Homo sapiens) (UniProt P12931); settings: Compound concentration 1000.0 nM
Sequence of Proto-oncogene tyrosine-protein kinase Src (Homo sapiens) (P12931 2-536 limits assumed): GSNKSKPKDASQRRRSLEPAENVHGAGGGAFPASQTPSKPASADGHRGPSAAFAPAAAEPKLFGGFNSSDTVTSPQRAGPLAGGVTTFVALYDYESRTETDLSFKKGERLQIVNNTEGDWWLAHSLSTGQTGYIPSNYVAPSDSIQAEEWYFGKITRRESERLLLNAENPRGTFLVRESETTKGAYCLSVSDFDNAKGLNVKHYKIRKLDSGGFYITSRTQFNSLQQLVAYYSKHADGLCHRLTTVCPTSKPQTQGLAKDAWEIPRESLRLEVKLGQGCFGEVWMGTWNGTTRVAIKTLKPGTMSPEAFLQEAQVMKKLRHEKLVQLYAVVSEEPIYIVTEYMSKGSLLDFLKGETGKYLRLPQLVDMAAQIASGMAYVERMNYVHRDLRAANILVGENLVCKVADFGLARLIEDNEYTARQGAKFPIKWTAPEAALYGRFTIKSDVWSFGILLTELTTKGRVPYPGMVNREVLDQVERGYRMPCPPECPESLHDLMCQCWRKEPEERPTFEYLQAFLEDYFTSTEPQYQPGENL

[18] = target: Mitogen-activated protein kinase kinase kinase 2 (Homo sapiens) (UniProt Q9Y2U5); settings: Compound concentration 1000.0 nM
[19] = target: Phosphatidylinositol 4-phosphate 3-kinase C2 domain-containing subunit beta (Homo sapiens) (UniProt O00750); settings: Compound concentration 1000.0 nM
[20] = target: Hormonally up-regulated neu tumor-associated kinase (Homo sapiens) (UniProt P57058); settings: Compound concentration 1000.0 nM
[21] = target: Serine/threonine-protein kinase PLK2 (Homo sapiens) (UniProt Q9NYY3); settings: Compound concentration 1000.0 nM
[22] = target: Adenosine receptor A2b (Homo sapiens) (UniProt P29275); experiment: A2B (h) Eurofins-Cerep binding assay; parameters: ligand concentration 5 nM; settings: filed as antagonist, Compound concentration 10.0 uM
[23] = target: Rhodopsin kinase GRK7 (Homo sapiens) (UniProt Q8WTQ7); settings: Compound concentration 1000.0 nM
[24] = target: MAO-B (amine oxidase [flavin-containing] B) (Homo sapiens, UniProt P27338); experiment: MAO-B (h) recombinant enzyme Eurofins-Cerep enzyme and uptake assay; parameters: incubation time 60 min, incubation temperature 37°C, substrate/stimulus/tracer D-Luciferin derivative (4 µM); settings: probe D-Luciferin derivative (4 µM), compound concentration 10 uM, read-out: % Inhibition of Control Values (Mean n=2)
[25] = test system: Mast/stem cell growth factor receptor Kit (Homo sapiens), P10721 [V559D,V654A]; settings: Compound concentration 1000.0 nM
[26] = target: Myosin light chain kinase (Homo sapiens) (UniProt Q32MK0); settings: Compound concentration 1000.0 nM
[27] = target: Cyclin-dependent kinase 4 (Homo sapiens) (UniProt P11802); settings: Compound concentration 1000.0 nM
[28] = target: Cyclin-dependent kinase 19 (Homo sapiens) (UniProt Q9BWU1); settings: Compound concentration 1000.0 nM
[29] = target: Serine/threonine-protein kinase ULK1 (Homo sapiens) (UniProt O75385); settings: Compound concentration 1000.0 nM
[30] = target: Ribosomal protein S6 kinase alpha-1 (Homo sapiens) (UniProt Q15418); settings: Compound concentration 1000.0 nM
[31] = target: Phosphatidylinositol 4,5-bisphosphate 3-kinase catalytic subunit alpha isoform (Homo sapiens) (UniProt P42336); settings: Compound concentration 1000.0 nM
[32] = test system: Epidermal growth factor receptor (Homo sapiens), P00533 [L858R]; settings: Compound concentration 1000.0 nM
[33] = target: Tyrosine-protein kinase TXK (Homo sapiens) (UniProt P42681); settings: Compound concentration 1000.0 nM
[34] = target: Casein kinase I isoform delta (Homo sapiens) (UniProt P48730); settings: Compound concentration 1000.0 nM
[35] = target: Serine/threonine-protein kinase 36 (Homo sapiens) (UniProt Q9NRP7); settings: Compound concentration 1000.0 nM
Sequence of Serine/threonine-protein kinase 36 (Homo sapiens) (Q9NRP7 whole entry): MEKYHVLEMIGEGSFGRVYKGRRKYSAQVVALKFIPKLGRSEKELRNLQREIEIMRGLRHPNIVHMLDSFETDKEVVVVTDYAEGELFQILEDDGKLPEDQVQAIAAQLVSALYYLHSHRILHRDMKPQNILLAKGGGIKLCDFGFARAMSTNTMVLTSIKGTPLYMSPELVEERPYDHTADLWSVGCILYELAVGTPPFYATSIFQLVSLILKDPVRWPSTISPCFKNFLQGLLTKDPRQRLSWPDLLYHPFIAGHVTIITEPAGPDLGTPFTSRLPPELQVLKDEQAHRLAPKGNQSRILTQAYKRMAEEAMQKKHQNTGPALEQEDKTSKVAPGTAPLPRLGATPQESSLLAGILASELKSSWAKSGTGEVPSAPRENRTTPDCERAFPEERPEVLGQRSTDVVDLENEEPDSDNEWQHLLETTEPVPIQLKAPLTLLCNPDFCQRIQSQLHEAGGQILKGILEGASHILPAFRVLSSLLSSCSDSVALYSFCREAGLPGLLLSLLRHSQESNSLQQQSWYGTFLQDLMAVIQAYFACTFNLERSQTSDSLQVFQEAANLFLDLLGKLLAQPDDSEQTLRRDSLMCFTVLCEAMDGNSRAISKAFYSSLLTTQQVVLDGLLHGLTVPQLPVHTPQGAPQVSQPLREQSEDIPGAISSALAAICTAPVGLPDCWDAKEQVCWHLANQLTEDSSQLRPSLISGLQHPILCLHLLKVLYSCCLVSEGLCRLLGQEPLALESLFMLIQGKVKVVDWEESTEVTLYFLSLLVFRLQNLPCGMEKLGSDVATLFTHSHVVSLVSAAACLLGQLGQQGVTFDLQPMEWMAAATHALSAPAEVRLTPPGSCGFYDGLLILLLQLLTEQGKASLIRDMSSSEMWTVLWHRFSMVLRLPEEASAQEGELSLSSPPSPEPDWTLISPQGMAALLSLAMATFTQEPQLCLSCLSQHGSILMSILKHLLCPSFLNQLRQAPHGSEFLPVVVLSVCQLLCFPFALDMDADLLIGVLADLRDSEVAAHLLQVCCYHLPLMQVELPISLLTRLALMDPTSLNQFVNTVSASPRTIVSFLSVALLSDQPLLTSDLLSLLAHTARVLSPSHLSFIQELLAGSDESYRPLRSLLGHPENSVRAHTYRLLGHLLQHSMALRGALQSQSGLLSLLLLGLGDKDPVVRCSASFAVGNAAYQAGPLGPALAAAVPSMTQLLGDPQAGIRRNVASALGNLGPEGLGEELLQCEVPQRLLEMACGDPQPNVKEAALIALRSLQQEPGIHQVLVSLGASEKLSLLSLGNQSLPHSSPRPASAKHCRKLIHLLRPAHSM

[36] = target: Fibroblast growth factor receptor 4 (Homo sapiens) (UniProt P22455); settings: Compound concentration 1000.0 nM
[37] = target: Interleukin-1 receptor-associated kinase 4 (Homo sapiens) (UniProt Q9NWZ3); settings: Compound concentration 1000.0 nM
[38] = target: Dual specificity testis-specific protein kinase 1 (Homo sapiens) (UniProt Q15569); settings: Compound concentration 1000.0 nM
Sequence of Dual specificity testis-specific protein kinase 1 (Homo sapiens) (Q15569 whole entry, looked up, canonical isoform): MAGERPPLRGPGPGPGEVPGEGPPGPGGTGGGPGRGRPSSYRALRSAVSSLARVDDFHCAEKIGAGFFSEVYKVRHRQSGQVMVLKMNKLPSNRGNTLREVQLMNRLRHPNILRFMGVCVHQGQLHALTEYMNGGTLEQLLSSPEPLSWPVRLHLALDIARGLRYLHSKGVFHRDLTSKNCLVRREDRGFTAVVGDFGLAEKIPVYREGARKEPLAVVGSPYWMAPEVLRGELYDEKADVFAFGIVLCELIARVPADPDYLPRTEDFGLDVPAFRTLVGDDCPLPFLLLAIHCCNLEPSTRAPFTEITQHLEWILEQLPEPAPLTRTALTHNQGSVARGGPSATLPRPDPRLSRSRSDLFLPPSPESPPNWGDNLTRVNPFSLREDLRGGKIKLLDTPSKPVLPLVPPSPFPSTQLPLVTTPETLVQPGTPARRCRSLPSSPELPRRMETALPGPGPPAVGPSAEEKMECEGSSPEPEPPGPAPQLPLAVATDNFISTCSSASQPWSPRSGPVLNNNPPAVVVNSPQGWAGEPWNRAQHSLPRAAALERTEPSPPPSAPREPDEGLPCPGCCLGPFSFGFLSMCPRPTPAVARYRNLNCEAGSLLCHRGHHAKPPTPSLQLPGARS

[39] = target: Casein kinase I isoform gamma-1 (Homo sapiens) (UniProt Q9HCP0); settings: Compound concentration 1000.0 nM
[40] = target: Serine/threonine-protein kinase OSR1 (Homo sapiens) (UniProt O95747); settings: Compound concentration 1000.0 nM
[41] = target: Glycogen synthase kinase-3 alpha (Homo sapiens) (UniProt P49840); settings: Compound concentration 1000.0 nM
[42] = target: Serine/threonine-protein kinase PLK3 (Homo sapiens) (UniProt Q9H4B4); settings: Compound concentration 1000.0 nM
[43] = target: Testis-specific serine/threonine-protein kinase 1 (Homo sapiens) (UniProt Q9BXA7); settings: Compound concentration 1000.0 nM
[44] = target: Phosphatidylinositol 5-phosphate 4-kinase type-2 gamma (Homo sapiens) (UniProt Q8TBX8); settings: Compound concentration 1000.0 nM
[45] = target: 5-hydroxytryptamine receptor 1B (Homo sapiens) (UniProt P28222); settings: Compound concentration 10.0 uM

Sequence of Serine/threonine-protein kinase Nek6 (Homo sapiens) (Q9HC98 whole entry): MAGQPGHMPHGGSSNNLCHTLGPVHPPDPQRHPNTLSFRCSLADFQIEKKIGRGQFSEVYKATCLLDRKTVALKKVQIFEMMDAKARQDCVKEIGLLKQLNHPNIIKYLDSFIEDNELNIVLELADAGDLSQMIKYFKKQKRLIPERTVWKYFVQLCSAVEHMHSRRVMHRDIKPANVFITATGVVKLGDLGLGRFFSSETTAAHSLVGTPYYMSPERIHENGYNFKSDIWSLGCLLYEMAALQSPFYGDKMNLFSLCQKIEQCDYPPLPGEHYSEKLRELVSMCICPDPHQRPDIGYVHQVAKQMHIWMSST

O=C(NS(=O)(=O)c1ccc(NCC2CCOCC2)c([N+](=O)[O-])c1)c1ccc(N2CCN(Cc3ccc(C(F)(F)F)cc3-c3ccc(Cl)cc3)CC2)cc1Oc1cnc2[nH]ccc2c1 [A-1210227]
-10.1%: % Inhibition of Control Specific Binding (Mean n=2) [22]
-4.8%: % Inhibition of Control Specific Binding (Mean n=2) [4]
inactive: residual activity [1] 93% | residual activity [2] 59% | residual activity [3] 89% | residual activity [6] 100% | residual activity [7] 84% | residual activity [8] 90% | residual activity [9] 89% | residual activity [10] 100% | residual activity [11] 100% | inhibition [12] 10.4% | residual activity [13] 100% | residual activity [14] 99% | residual activity [15] 100% | residual activity [16] 76% | residual activity [17] 76% | residual activity [18] 100% | residual activity [19] 83% | residual activity [20] 100% | residual activity [21] 100% | residual activity [23] 78% | residual activity [25] 100% | residual activity [26] 100% | residual activity [27] 100% | residual activity [28] 90% | residual activity [29] 96% | residual activity [30] 95% | residual activity [31] 69% | residual activity [32] 90% | residual activity [33] 94% | residual activity [34] 80% | residual activity [35] 88% | residual activity [36] 96% | residual activity [37] 85% | residual activity [38] 100% | residual activity [39] 95% | residual activity [40] 83% | residual activity [41] 100% | residual activity [42] 100% | residual activity [43] 100% | residual activity [44] 100% | inhibition [45] -6.15%
11.2%: % Inhibition of Control Specific Binding (Mean n=2) [5]
-4.3%: inhibition at 60 min, 10 µM [24]

CO[C@H]1CC[C@H](CNc2ccc(S(=O)(=O)NC(=O)c3ccc(N4CCN(CC5=C(c6ccc(Cl)cc6)CC(C)(C)CC5)CC4)cc3Oc3cnc4[nH]ccc4c3)cc2[N+](=O)[O-])CC1 [A-1211212]
inactive: residual activity [1] 97% | residual activity [2] 67% | residual activity [3] 89% | residual activity [6] 100% | residual activity [7] 100% | residual activity [8] 89% | residual activity [9] 90% | residual activity [10] 100% | residual activity [11] 96% | inhibition [12] -1.62% | residual activity [13] 58% | residual activity [14] 71% | residual activity [15] 100% | residual activity [16] 76% | residual activity [17] 78% | residual activity [18] 68% | residual activity [19] 92% | residual activity [20] 100% | residual activity [21] 100% | residual activity [23] 100% | residual activity [25] 93% | residual activity [26] 100% | residual activity [27] 100% | residual activity [28] 73% | residual activity [29] 82% | residual activity [30] 69% | residual activity [31] 77% | residual activity [32] 60% | residual activity [33] 100% | residual activity [34] 93% | residual activity [35] 71% | residual activity [36] 87% | residual activity [37] 83% | residual activity [38] 100% | residual activity [39] 100% | residual activity [40] 76% | residual activity [41] 100% | residual activity [42] 100% | residual activity [43] 67% | residual activity [44] 85% | inhibition [45] 6.23%
-36.3%: % Inhibition of Control Specific Binding (Mean n=2) [22]
-12.6%: % Inhibition of Control Specific Binding (Mean n=2) [4]
16.9%: inhibition at 60 min, 10 µM [24]
-2.2%: % Inhibition of Control Specific Binding (Mean n=2) [5]
